In patent publication US12036241B2, “Compositions and methods for immune cell modulation in adoptive immunotherapies” (Fate Therapeutics, Inc., priority 2017, dated 2024):
Entries after “also recorded” stand apart in the source; their conditions may differ. Like-named read-outs stand apart in the source and are kept apart here.

Tests used:
[1] = tested on: irradiated K562 cells expressing CD19 and mKate2; experiment: Target cell killing by compound-treated CAR-T cells (IncuCyte); format: cell-based, human; settings: earlier time points, 24 to 65 hours; FIG. 4A
[2] = tested on: luciferase expressing Nalm6 tumor cells; experiment: Two-stage tumor clearance model, primary tumor; format: in vivo, NSG mice; settings: compared to DMSO treated CAR-T; FIG. 13C
Procedure: (§1) To further assess tumor clearance and control by CAR-T cells modulated with a selected compound, a two-stage tumor clearance model was established. […] Secondary tumor burden was measured via bi-weekly caliper measurements and IVIS imaging. IVIS control mice received neither tumor nor CAR-T cells and served as the background luminescence for the IVIS imager.

CAR-T cells = experiment: Serial restimulation of CAR-T cells produced with vehicle, PI3K inhibitor or PDK1 inhibitor; format: cell-based, human; settings: after antigen stimulation and withdrawal, and with coated beads; FIG. 10 legend
Procedure: At the end of the manufacturing process, the cells were frozen prior to subsequent functional analysis.
The ability of CAR-T cells produced in the presence of vehicle, PI3K inhibitor, or PDK1 inhibitor to expand through multiple rounds of antigen stimulation was measured in a serial restimulation assay, wherein cryopreserved CAR-T cells were thawed and co-cultured in the presence of antigen-bearing, irradiated target cells. Every 3 to 4 days the CAR-T and target cell ratios were readjusted to approximately 1:1. […] As an alternative to using antigen-bearing, irradiated target cells for CAR-T cell stimulation, cryopreserved CAR-T cells from three independent donors produced in the presence of vehicle, PI3Ki or PDKli were thawed in T cell growth media and subsequently assessed for expansion and survival, as measured by AUC (area under the curve) of the expansion over 14 days of stimulation with anti-CAR antibodies conjugated to beads.

Nalm-6 = experiment: Survival in Nalm6/NSG tumor model, suboptimal CAR-T dose; format: in vivo, NSG mice; settings: 3×10^5 CD19 CAR-T cells; FIG. 12A; listed as PDK1 inhibitor
Procedure: (§2) Next, an in vivo assay was conducted to further characterize CAR-T cells produced in the presence of a PI3K inhibitor or a PDK1 inhibitor for tumor clearance. NSG mice were injected with a human leukemia line, Nalm-6. Four days later, mice were treated with a suboptimal dose (3×10^5) of freshly thawed CD19 CAR-T cells generated in the presence of vehicle (“DMSO” n=8), PI3K inhibitor (n=8), or PDK1 inhibitor (n=8). Some tumor bearing mice (n=2) also received expanded T cells that were not transduced with CAR (untransduced or “UNTD”). Negative control mice (n=2, “Unmanip”) received neither tumor nor CAR T cells. […] Seven days later, a suboptimal dose (2.5×10^5) of CD19 CAR-T cells produced in the presence of DMSO, PDK1 inhibitor, or PI3K inhibitor were transferred and the survival of the tumor bearing mice was monitored.

[3] = tested on: K562 tumor cells engineered to express CD19 and luciferase; experiment: Two-stage tumor clearance model, secondary tumor re-challenge; format: in vivo, NSG mice; settings: re-challenge 47 days post primary tumor, FIG. 13D
Procedure: as §1

CD8+ T cells = experiment: Cytokine production (IFNγ, IL-2, TNFα) after PMA/ionomycin, intracellular staining; format: cell-based, human; settings: PMA/ionomycin 4 h; FIG. 3D
Procedure: The ability of T cells to respond to a variety of stimuli can be important to their function. The capacity of T cells to produce multiple cytokines in response to non-specific stimulation is a measure of their ‘multifunctionality’. To assess whether compounds affect this ‘multifunctional’ response, the ability of modulated T cells to produce interferon-γ (IFNγ), IL-2 and/or TNFα post-stimulation was determined. After CD8^+ T cell treatment with each of the selected compounds, cells were stimulated with a mixture of PMA/ionomycin for four hours. Following stimulation, cytokine production was measured using intracellular cytokine staining with antibodies recognizing these cytokines conjugated to different fluorophores. Fluorescence was measured using flow cytometry. Cell were defined as multifunctional if they produced two or more cytokines. The proportion of T cell subsets that produce specific single, double or triple cytokines was examined and compared to cells without modulation using a selected compound.
The ability of T cells to respond to a variety of stimuli is important for their function. The capacity of T cells to produce multiple cytokines in response to non-specific stimulation is a measure of their “multifunctionality”. To assess whether selected compounds affect this “multifunctional” response in view of their phenotype skewing effect on the treated cells, the ability of treated cells to produce interferon-γ (IFNγ), IL-2 and TNFα post-stimulation was determined. After treatment of CD8+ T cells with a compound from Table 1, cells were stimulated with a mixture of PMA/ionomycin for four hours. Following stimulation, cytokine production was measured by intracellular cytokine staining with fluorescence-emitting antibodies recognizing these cytokines conjugated to different fluorophores. Fluorescence was measured using flow cytometry. Cells were defined as multifunctional if they produced at least two of the three cytokines.

[4] = tested on: CD19 and BCMA CAR-T cells; experiment: Cytokine production on stimulation with antigen-bearing cells, MSD analysis; format: cell-based, human
CD8+ CAR-T cells = settings: FIG. 2C
[5] = tested on: CAR-T cells in spleen and bone marrow; experiment: In vivo persistence of CAR-T cells during and after tumor clearance; parameters: species or system mice; settings: FIG. 9 legend
Description: Further, in vivo persistence of compound-treated CAR-T cells during and after tumor clearance was also investigated. One of the main correlates of successful CAR-T cell therapy in patients is the persistence of CAR-T cells (i.e., through cell survival and/or cell expansion in vivo). To model CAR-T cell persistence in vivo, CD4+ and CD8+ T cells were separately expanded and transduced with a lentivirus encoding CAR-T2A-Thy1 and cultured in the presence of DMSO or a lentivirus encoding CAR-T2A-GFP and cultured in the presence of a testing compound (Table 3). Then a cohort of mice were injected with a curative dose (2×10^6) of CAR-T cells that was composed of CAR-T cell subsets from two different expansion protocols and mixed at approximately a 1:1:1:1 ratio, and the initial ratio of the CAR-T cells subsets in the injection mix was further determined prior to injection. All mice in the cohort had received Nalm-6-luc cells 4 days earlier and were able to clear the tumor by the injected CAR-T cells.
At day 7, 15, 21, and 32 post CAR-T cell injection (day 0: tumor engraftment, day 4: CAR-T cell injection) mice were sacrificed and the relative proportions of the CAR-T cells expanded in DMSO or the testing compound in both spleen and bone marrow were determined. FIG. 9 exemplifies the effect of a PDK1 inhibitor treatment on CAR-T cell in vivo persistence. […]

Raji = experiment: Survival in Raji/NSG tumor model, suboptimal CAR-T dose; format: in vivo, NSG mice; settings: 2.5×10^5 CD19 CAR-T cells; FIG. 12B; listed as PDK1 inhibitor
Procedure: as §2

SMILES: CNc1nc(-c2ccc3c(N)n[nH]c3c2)cc(N2C[C@@H](C(=O)NC3CCCCC3)CC[C@H]2C)n1 [Compound 21, GSK2334470]
- kinetics of target cell killing compared to vehicle [1]: slower than for vehicle
- in vivo efficacy at day 11 post primary tumor injection [2]: greater in vivo efficacy
- CAR-T cell expansion (CAR-T cells): improves CAR-T cell expansion
- survival of tumor bearing mice compared to DMSO generated CAR-T cells (Nalm-6): prolonged survival; also recorded: improves survival
- control of secondary tumor ([3]; listed as PDK1): superior and rapid control of secondary tumor
- control of secondary tumor ([3]; listed as PDK1 inhibitor): rapid control of secondary tumor
- increase of IFNγ+ only subpopulation (CD8+ T cells): ~10 fold
- increase of IL-2 only subpopulation (CD8+ T cells): ~19 fold
- IL-2 production compared to DMSO ([4]; after 14 days of CAR activation): overall greater amounts of IL-2
- IL-2 production compared to DMSO ([4]; immediately following thaw (day 0)): greater amounts of IL-2
- IFNγ and TNF production compared to DMSO ([4]; post thaw): comparable
- donors in which treatment significantly improved expansion of CD8+ CAR-T cells vs vehicle (CD8+ CAR-T cells; 5 healthy donors): 4 out of 5
- expansion of CD8+ CAR-T cells in comparison to vehicle treatment (CD8+ CAR-T cells; listed as PDK1i): significantly improved
- expansion of CD8+ CAR-T cells in comparison to vehicle treatment (CD8+ CAR-T cells; listed as PDK1 inhibitor): improves expansion
- persistence of CAR-T cells during and after tumor clearance in vivo [5]: increased persistence
- survival of tumor bearing mice compared to DMSO treated CAR-T cells (Raji): substantially improved; also recorded: improves survival
